# Experimental data published in patent US20130149721A1, “Methods for Inhibiting Amyloid Precursor Protein and Beta-Amyloid Production and Accumulation” (WISCONSIN ALUMNI RESEARCH FOUNDATION, priority 2008, published 2013).
# Marks after values point to notes of the source that are not given here.
# Legend:
# [1] = system: PTZ-induced seizures in WT, Fmr-1 KO, Tg2576 and FRAXAD mice; assay: PTZ seizure induction after MPEP pre-treatment; format: in vivo, mouse; details: 30 mg/kg MPEP I.P. 30 min prior to PTZ
# Method: To assess the impact of mGluR5 inhibition on seizure phenotypes, Frm-1 KO, Tg2576, and FRAXAD mice were treated with mGluR5 antagonist, MPEP. Tg2576, FRAXAD and littermate controls were treated with 30 mg/kg MPEP (via I.P. injections) 30 min prior to seizure induction with PTZ. The experimental results presented in Table 2 support MPEP's effect as an anti-convulsant in both WT and Fmr-1 KO mice. WT male mice reach a grade 3 seizure, fully developed minimal seizure with clonus of the head muscles and forelimbs, at a rate of 50% in response to 50 mg/kg PTZ, but only 20% achieve a grade 3 seizure with MPEP treatment 30 min prior to PTZ (statistically significant, χ^2 test, p<0.0005). Likewise, there was a reduction from 11% to 0%, 46% to 25%, and 40% to 33% in WT females, Fmr-1 KO males and Fmr-1 KO females, respectively when tested using the seizure induction assay.
# [2] = system: audiogenic seizures in mice; assay: Audiogenic seizure (AGS) testing; format: in vivo, mouse; details: MPEP 30 mg/kg I.P. 30 min prior to AGS testing
# Method: Audiogenic Seizure Testing, Data Analyses and mGluR5 Blockade: All mouse strains were tested at postnatal day 21, the peak of AGS sensitivity. The experimental apparatus consisted of a clear, Plexiglas box (13″L×8″W×7″H) with the sound source located inside the box (LOUD KEY™ jogger's alarm). Mice were weighed and then placed individually into the center of the chamber and exposed to a siren that generated noise at 118 dB for 5 min. Loud, acoustic stimulation causes wild running (WR) behavior within 20-30 sec followed by erratic leaping, clonic convulsions and tonic hind limb extension by 40-50 sec followed by respiratory arrest and death (Chen, et al., 2001, Neuroscience 103, 1043-1050). The animals were scored for the latency time of wild running (WR), AGS and respiratory arrest (death). […] MPEP was a kind gift from FRAXA Research Foundation (Newburyport, Mass.) and was dissolved at 1 mg/mL in DPBS before I.P. injection at 30 mg/kg body weight 30 min prior to AGS testing.
# Tg2576 mice over-expressed hAPPSwe and hAβ. FRAXAD were a cross between fmr-1^−/− (Fragile X mouse model) and Tg2576 (AD mouse model) and generated 23% more brain hAβ1-40 than Tg2576 (Westmark et al., 2008, Int J Clin Exp Pathol 1: 157-168). […] It was determined whether hAPPSwe/hAβ over-expression in an fmr-1 null background (FRAXAD mice) increased AGS. C57BL/6 fmr-1^−/− mice were sensitive to AGS from 15-47 days with a peak at 21 days (Yan et al., 2005, Neuropharmacology 49: 1053-1066). AGS in WT, fmr-1^−/−, Tg2576 and FRAXAD mice was examined at 21 days of age. Mice were transferred to a Plexiglas box (13″L×8″W×7″H) shortly after weaning and exposed to high pitch siren (118 dB) from a personal body alarm (LOUD KEY™).
# A common denominator between Fragile X Syndrome (FXS), Downs Syndrome (DS), and Alzheimer's Disease (AD) is the over-expression of amyloid precursor protein (APP) and/or beta-amyloid (Aβ). […] Additionally, methods that decreased APP/Aβ levels were expected to reduce AGS. Accordingly, AGS rates were examined in AD, FXS and DS mouse models. AGS rates for FRAXAD, Tg2576, and fmr-1^−/−, Ts65Dn were described above in Example 6. Here, the ability of 2-methyl-6-(phenylethynyl)pyridine hydrochloride (MPEP) to attenuate AGS was assessed. Tg2576 and FRAXAD mice were treated with MPEP for 30 min prior to AGS stimulation to assess the effect of mGluR5 blockade on seizure propensity in AD mouse models.
smiles,measurement,setting,value
"Cc1cccc(C#Cc2ccccc2)n1 [MPEP, 2-methyl-6-(phenylethynyl)pyridine]",MPEP + PTZ % death,[1]; FMR-1 KO female,0%
same,MPEP + PTZ % grade 3,[1]; FMR-1 KO female,33%
same,MPEP + PTZ % death,[1]; FMR-1 KO male,0%
same,MPEP + PTZ % grade 3,"[1]; FMR-1 KO male, 30 mg/kg",25%
same,MPEP + PTZ % death,[1]; FRAXAD female,40* %
same,MPEP + PTZ % grade 3,[1]; FRAXAD female,100%
same,MPEP + PTZ % death,[1]; FRAXAD male,60* %
same,MPEP + PTZ % grade 3,[1]; FRAXAD male,80%
same,MPEP + PTZ % death,[1]; Tg2576 female,50* %
same,MPEP + PTZ % grade 3,[1]; Tg2576 female,75%
same,MPEP + PTZ % death,[1]; Tg2576 male,75%
same,MPEP + PTZ % grade 3,[1]; Tg2576 male,100%
same,MPEP + PTZ % death,[1]; WT female,0%
same,MPEP + PTZ % grade 3,"[1]; WT female, 30 mg/kg",0%
same,MPEP + PTZ % death,[1]; WT male,0%
same,MPEP + PTZ % grade 3,"[1]; WT male, 30 mg/kg",20%
same,% Death,[2]; FRAXAD mice,7%
same,% WR,[2]; FRAXAD mice,60%
same,% Death,[2]; Fmr-1 KO mice,0%
same,% WR,[2]; Fmr-1 KO mice,14%
same,% Death,[2]; Tg2576 mice,0%
same,% WR,[2]; Tg2576 mice,0%
same,% AGS,[2]; WT mice,0%
same,% Death,[2]; WT mice,0%
same,% WR,[2]; WT mice,0%
